Reference: ChEMBL document CHEMBL1146379, “Solid phase synthesis and SAR of small molecule agonists for the GPR40 receptor” (Bioorg Med Chem Lett, 2007)
≈ marks a conversion by molar mass, not a printed value.

Experiments:
[1] = Bioavailability in rat; type: ADME, organism-based; conditions: in vivo
Homo sapiens [2] = organism: Homo sapiens; test: Selectivity for GPR40 over GPR41
Homo sapiens [3] = organism: Homo sapiens; test: Selectivity for GPR40 over GPR43
[4] = target: Free fatty acid receptor 1 (Homo sapiens, UniProt O14842); test: Agonist activity at GPR40 receptor; type: functional
[5] = Solubility at pH 7.4; type: physicochemical; conditions: buffer
[6] = target: T1, Free fatty acid receptor 3 (Homo sapiens, UniProt O14843); test: Activity at GPR41 receptor
T1 sequence (O14843 whole entry): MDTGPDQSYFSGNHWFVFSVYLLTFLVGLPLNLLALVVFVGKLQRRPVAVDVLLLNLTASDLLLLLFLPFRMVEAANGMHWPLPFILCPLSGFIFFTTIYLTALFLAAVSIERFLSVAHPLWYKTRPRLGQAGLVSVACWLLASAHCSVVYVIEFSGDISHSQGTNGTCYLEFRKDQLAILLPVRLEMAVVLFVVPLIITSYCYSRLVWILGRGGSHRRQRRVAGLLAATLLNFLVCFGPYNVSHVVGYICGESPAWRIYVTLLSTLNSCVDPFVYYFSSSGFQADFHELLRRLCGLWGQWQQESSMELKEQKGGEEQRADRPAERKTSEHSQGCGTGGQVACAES

[7] = target: T2, Free fatty acid receptor 2 (Homo sapiens, UniProt O15552); test: Activity at GPR43 receptor
T2 sequence (O15552 whole entry): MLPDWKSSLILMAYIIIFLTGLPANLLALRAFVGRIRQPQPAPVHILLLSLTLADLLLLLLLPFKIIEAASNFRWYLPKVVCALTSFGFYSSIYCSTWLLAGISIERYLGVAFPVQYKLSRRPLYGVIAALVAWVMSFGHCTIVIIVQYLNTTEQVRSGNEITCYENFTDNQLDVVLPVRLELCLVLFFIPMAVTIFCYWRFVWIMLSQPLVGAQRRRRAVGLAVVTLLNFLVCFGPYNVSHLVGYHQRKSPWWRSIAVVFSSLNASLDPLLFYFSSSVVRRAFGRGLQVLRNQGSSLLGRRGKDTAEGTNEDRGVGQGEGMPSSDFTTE

[8] = target: Sphingosine 1-phosphate receptor 1 (Homo sapiens, UniProt P21453); test: Activity at S1P1 receptor
[9] = target: T3, Peroxisome proliferator-activated receptor alpha (Homo sapiens, UniProt Q07869); test: Activity at PPARalpha receptor
T3 sequence (Q07869 whole entry): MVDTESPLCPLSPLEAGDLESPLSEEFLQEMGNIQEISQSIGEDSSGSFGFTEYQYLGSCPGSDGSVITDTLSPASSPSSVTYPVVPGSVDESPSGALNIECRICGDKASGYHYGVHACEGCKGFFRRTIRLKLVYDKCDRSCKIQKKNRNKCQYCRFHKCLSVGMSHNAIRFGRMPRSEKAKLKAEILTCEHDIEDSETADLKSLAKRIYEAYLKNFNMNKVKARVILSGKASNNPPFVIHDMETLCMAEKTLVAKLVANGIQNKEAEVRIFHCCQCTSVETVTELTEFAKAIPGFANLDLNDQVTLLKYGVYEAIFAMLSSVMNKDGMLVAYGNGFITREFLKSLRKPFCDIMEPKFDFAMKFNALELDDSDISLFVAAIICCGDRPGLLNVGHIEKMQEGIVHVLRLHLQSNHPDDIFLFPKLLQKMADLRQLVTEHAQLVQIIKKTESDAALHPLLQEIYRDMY

[10] = target: T4, Peroxisome proliferator-activated receptor delta (Homo sapiens, UniProt Q03181); test: Activity at PPARdelta receptor
T4 sequence (Q03181 whole entry): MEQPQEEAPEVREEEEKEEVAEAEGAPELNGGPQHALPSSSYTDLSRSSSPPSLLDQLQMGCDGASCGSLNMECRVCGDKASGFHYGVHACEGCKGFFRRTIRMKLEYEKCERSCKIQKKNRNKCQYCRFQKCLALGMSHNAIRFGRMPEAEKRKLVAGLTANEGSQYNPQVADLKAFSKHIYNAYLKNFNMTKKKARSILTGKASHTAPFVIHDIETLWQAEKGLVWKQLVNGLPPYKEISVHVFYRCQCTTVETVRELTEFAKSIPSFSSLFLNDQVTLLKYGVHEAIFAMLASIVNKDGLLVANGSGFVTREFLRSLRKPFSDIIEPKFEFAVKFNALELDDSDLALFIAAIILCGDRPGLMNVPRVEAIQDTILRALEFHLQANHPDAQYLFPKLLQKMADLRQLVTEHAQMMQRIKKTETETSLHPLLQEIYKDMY

[11] = target: T5, Peroxisome proliferator-activated receptor gamma (Homo sapiens, UniProt P37231); test: Activity at PPARgamma receptor
T5 sequence (P37231 whole entry): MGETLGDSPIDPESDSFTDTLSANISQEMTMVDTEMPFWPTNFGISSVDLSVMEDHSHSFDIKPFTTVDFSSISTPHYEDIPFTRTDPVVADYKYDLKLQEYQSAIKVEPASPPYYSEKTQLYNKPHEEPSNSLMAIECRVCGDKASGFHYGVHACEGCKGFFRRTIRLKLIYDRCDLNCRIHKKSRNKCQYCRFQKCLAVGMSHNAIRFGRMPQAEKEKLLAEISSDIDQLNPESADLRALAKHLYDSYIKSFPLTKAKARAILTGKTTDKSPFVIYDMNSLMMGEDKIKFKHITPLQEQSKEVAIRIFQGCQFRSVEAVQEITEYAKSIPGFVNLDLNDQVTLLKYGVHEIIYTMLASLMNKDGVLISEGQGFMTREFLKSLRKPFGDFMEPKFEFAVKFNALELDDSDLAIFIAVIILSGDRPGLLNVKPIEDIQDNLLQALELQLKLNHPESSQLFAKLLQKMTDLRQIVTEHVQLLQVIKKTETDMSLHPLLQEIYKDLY

[12] = target: T6, Prostaglandin E2 receptor EP3 subtype (Homo sapiens, UniProt P43115); test: Activity at EP3 receptor
T6 sequence (P43115 whole entry): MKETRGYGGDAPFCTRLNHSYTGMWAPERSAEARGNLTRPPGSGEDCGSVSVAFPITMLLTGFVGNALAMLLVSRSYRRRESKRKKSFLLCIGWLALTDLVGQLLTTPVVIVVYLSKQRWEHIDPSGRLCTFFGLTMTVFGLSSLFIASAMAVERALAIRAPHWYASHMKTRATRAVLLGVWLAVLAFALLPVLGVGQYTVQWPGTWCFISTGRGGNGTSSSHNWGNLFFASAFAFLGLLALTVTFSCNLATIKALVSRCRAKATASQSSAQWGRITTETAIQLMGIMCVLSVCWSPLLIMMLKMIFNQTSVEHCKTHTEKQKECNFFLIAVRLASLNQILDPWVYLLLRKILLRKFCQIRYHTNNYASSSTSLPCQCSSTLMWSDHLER

[13] = target: Prostaglandin E2 receptor EP4 subtype (Homo sapiens, UniProt P35408); test: Activity at EP4 receptor
Cytochrome P450 2D6 = Cytochrome P450 2D6 (Homo sapiens, UniProt P10635); test: Inhibition of CYP2D6; type: ADME
[14] = Permeability in MDCK cells expressing low Pgp; type: ADME, cell-based, Canis lupus familiaris; conditions: dog, MDCK type I; read-out: permeability
[15] = Protein binding in rat plasma by ultrafiltration assay; type: ADME, cell-free; conditions: read-out: PB
[16] = Clearance in rat; type: ADME, organism-based; conditions: in vivo

Sphingosine 1-phosphate receptor 1, sequence (P21453 whole entry): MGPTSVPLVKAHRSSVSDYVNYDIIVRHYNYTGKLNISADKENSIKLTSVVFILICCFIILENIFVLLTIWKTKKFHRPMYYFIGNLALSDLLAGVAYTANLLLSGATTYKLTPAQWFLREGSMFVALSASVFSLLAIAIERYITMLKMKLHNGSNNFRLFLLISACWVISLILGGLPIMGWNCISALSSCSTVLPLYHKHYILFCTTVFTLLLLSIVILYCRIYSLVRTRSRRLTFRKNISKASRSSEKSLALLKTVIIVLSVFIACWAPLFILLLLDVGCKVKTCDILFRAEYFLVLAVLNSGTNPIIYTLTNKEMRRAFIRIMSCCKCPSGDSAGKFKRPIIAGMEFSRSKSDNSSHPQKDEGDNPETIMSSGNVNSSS
Cytochrome P450 2D6, sequence (P10635 whole entry): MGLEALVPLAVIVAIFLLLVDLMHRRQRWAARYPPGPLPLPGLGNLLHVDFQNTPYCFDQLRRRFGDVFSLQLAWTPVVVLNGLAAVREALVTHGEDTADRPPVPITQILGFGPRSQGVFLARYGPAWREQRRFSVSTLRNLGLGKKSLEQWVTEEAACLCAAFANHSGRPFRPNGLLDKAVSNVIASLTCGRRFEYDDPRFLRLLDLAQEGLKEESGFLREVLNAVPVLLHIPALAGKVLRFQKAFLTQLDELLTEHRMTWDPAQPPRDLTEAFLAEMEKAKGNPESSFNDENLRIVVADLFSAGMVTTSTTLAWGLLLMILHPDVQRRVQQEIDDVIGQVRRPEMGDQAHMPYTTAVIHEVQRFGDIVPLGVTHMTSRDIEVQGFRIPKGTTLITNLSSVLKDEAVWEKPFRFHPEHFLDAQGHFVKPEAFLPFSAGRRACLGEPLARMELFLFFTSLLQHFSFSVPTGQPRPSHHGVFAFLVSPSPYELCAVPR
Free fatty acid receptor 1, sequence (O14842 whole entry): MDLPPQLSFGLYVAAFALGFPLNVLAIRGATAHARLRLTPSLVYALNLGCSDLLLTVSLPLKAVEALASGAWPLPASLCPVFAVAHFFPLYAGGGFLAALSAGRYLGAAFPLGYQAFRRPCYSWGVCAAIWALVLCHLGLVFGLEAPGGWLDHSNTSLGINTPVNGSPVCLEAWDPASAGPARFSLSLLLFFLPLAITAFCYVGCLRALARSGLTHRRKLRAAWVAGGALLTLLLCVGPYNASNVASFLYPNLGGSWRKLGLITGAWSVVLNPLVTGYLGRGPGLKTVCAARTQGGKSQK
Prostaglandin E2 receptor EP4 subtype, sequence (P35408 whole entry): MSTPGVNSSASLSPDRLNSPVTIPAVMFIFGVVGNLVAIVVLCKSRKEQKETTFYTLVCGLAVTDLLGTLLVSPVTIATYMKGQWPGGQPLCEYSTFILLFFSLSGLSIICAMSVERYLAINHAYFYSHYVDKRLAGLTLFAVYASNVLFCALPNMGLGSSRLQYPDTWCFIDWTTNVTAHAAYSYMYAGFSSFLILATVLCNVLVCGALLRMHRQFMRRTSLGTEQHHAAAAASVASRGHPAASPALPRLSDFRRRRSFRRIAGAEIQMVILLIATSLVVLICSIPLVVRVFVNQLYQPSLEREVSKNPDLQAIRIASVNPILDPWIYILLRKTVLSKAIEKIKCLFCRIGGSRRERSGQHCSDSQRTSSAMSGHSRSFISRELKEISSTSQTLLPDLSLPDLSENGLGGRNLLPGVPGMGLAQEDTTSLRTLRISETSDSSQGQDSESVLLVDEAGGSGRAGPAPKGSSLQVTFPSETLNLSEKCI

Question: Which bioavailability [1] does the source give for `O=C(O)CCc1ccc(NCc2cccc(Oc3ccccc3)c2)cc1` [GW9508] here?
Answer: 65%

Question: What about the Fold change (Homo sapiens [2]) of the same compound?
Answer: 500

Question: What about the Fold change (Homo sapiens [3]) of the same compound?
Answer: > 500

Question: And the EC50 [4]?
Answer: 0.0794 µM

Question: And the solubility [5]?
Answer: 290 µg/mL (≈ 835 µM)

Question: And the EC50 [6]?
Answer: > 50.1 µM

Question: And the EC50 [7]?
Answer: > 50.1 µM

Question: What about the EC50 [8] of the same compound?
Answer: > 31.6 µM

Question: And the Ki [9]?
Answer: > 3.16 µM

Question: What about the Ki [10] of the same compound?
Answer: > 3.16 µM

Question: What about the Ki [11] of the same compound?
Answer: > 3.16 µM

Question: And the Ki [12]?
Answer: 0.398 µM

Question: And the Ki [13]?
Answer: > 3.16 µM

Question: What about the IC50 (Cytochrome P450 2D6) of the same compound?
Answer: > 33 µM

Question: And the Papp [14]?
Answer: 59.9 ×10⁻⁶ cm/s

Question: What about the fraction unbound [15] of the same compound?
Answer: < 0.004

Question: And the clearance [16]?
Answer: 24.9 mL/min/kg
